“Also recorded” adds a separate entry of the source.
Experiments:
E. coli = details: AEC alone; cited from earlier work
aspartokinase = details: enzyme of the first step of the aspartate amino acid family pathway; cited from earlier work
C. glutamicum = details: AEC alone versus with threonine; cited from earlier work
M. tuberculosis H37Rv = format: cell-based, Mycobacterium tuberculosis
[1] = system: M. bovis BCG substrain Pasteur; format: cell-based, Mycobacterium bovis BCG

SMILES | inhibition of growth (E. coli) | inhibition of aspartokinase (aspartokinase) | inhibition of growth (C. glutamicum) | inhibitory effect upon growth (M. tuberculosis H37Rv) | inhibitory effect upon growth [1]
NCCSC[C@H](N)C(=O)O [AEC, S-(β-aminoethyl)-L-cysteine] | capable of inhibiting the growth of E. coli | inhibits aspartokinase | requires the addition of threonine to inhibit the growth of C. glutamicum | neither AEC or Thr alone have an inhibitory effect; also recorded: the combination of the two does inhibit growth | neither AEC or Thr alone have an inhibitory effect; also recorded: the combination of the two does inhibit growth, with BCG experiencing the greatest inhibition
C[C@@H](O)[C@H](N)C(=O)O [Thr, threonine] | – | – | – | neither AEC or Thr alone have an inhibitory effect | neither AEC or Thr alone have an inhibitory effect

Reference: patent US6423545B1, “Unmarked deletion mutants of mycobacteria and methods of using same” (Albert Einstein College of Medicine of Yeshiva University, priority 1999, dated 2002)
